Like-named read-outs stand apart in the source and are kept apart here.
What was measured:
[1] = target: T1, Full length wild-type cereblon CRBN (Homo sapiens, UniProt Q96SW2); test: Fluorescence polarization (FP) assay indicating cereblon binding
T1 construct: Full length wild-type cereblon CRBN (80.0 nM, 10 μL) was incubated in assay buffer
Method: Compound activity was monitored in a fluorescence polarization (FP) homogeneous assay using 1-[5-({2-[2-(2-{[2-(2,6-dioxopiperidin-3-yl)-1,3-dioxo-2,3-dihydro-1H-isoindol-4-yl]oxy}acetamido)ethoxy]ethyl}carbamoyl)pentyl]-3,3-dimethyl-2-[(1E,3E)-5-[(2E)-1,3,3-trimethyl-5-sulfo-2,3-dihydro-1H-indol-2-ylidene]penta-1,3-dien-1-yl]-3H-indol-1-ium-5-sulfonate as a fluorescent probe. Unless otherwise stated, all reagents were purchased from Sigma Aldrich. Enzymatic reactions were conducted in Perkin-Elmer Black 384 well ProxiPlate Plus (catalogue no. 6008269) in 10 μL total volume. Full length wild-type cereblon CRBN (80.0 nM, 10 μL) was incubated in assay buffer containing 20 mM HEPES (pH 8.0), […], 0.5 mM TCEP and 0.05% Tween 20 in the presence or absence of compound (300 nL). Inhibitors were stored as 10 mM DMSO stocks in an inert environment (low humidity, dark, low oxygen, room temperature) using the Storage Pod System. Compounds and DMSO were dispensed using the Echo E5XX (Labcyte Inc. USA) to give concentrations from 300 to 0.937 or 3000 to 9.3 nM in a 12 data point curve. […] Following incubation at room temperature for 30 min, the assay was initiated by dispensing the probe to a final concentration of 5 nM (2.5 nL of a 20 μM stock) using the Echo E5XX. FP was measured after a period of 12 hours using a Pherastar plate reader (BMG Labtech, Germany) exciting at 590 nm and measuring the amount of parallel and perpendicular light at 675 nm. The FP signal was subsequently normalized to the no-compound control (i.e., DMSO). Analysis and IC50 values were derived using Dotmatics (Dotmatics UK) software.

GSPT1 = GSPT1 (Homo sapiens, UniProt P15170+Q96SW2); test: GSPT1 degradation immunofluorescence assay in CAL-51 cells; format: cell-based; set-up: endogenous in cells; host or cells: CAL-51 (DSMZ ACC302); conditions: 6 hours
Method: CAL-51 cells were purchased from DSMZ (cat. Number ACC302), sub-cultured in 90% Dulbecco's MEM (4.5 g/L glucose, Gibco 11965)+10% heat inactivated FBS (BioConcept, 2-01F1361) and incubated at 37° C., 5% CO2. For the assay, imaging microtiterplate Cell Carrier 96 Ultra (Perkin Elmer 6055302) were pre-coated with Fibronectin (Sigma F085, 30 μl at 0.2 μg/ml) in PBS (100 μl, Gibco 14190) for 45 min at room temperature, rinsed with PBS and CAL-51 cells (30K cells/well) were plated and let to adhere overnight. Cells were treated with compounds typically using a serial dilution ranging from 30 μM to 0.1 nM for 6 hours. Compounds were stored at 10 mM DMSO stocks. Vehicle (DMSO), positive (CC-885, 10 μM) and rescue controls (positive control plus 0.2 μM bortezomib) were also included at this stage. Cells were subsequently rinsed with PBS and fixed in 10% Formalin solution (50 μl, Sigma HT5011)) for 20 mins at room temperature. Following three consecutive PBS washes (100 μl), cells were permeabilized in 0.1% Triton X-100 in PBS (Sigma 93443, 50 μl) for 15 mins at room temperature. Following three further PBS washes, 50 μl blocking buffer (1% BSA, Sigma A4503, in PBS) was added for 45 min for signal-to-noise reduction. Primary antibody (human GSPT1, Sigma HPA052488) was diluted in blocking buffer (dil. 1/300, 35 μl/well) and incubated with the cells overnight at 4° C. After three PBS washes, Alexa-fluor 488 coupled secondary antibodies (Invitrogen, A32731, dil. 1/1000), Alexa-fluor 647-Phalloidin (Invitrogen, A22287, dil. 1/200) and DAPI (Thermo, #62248, dil. 1/1000) were diluted in blocking buffer and incubated with the samples for 2 hours at room temperature. After three final PBS washes, samples were conserved in 100 μl PBS in the dark, until measurement. Image acquisition was performed on the Operetta High-Content Imager (Perkin-Elmer). Fluorescence intensity of Alexa-Fluor 488 (GSPT1), Alexa-Fluor 647 (Actin) and DAPI (Nucleus) were measured. For the determination of GSPT1 DC50 values, a custom algorithm implemented in the PerkinElmer image analysis software Harmony-Acapella® was developed. After user-defined setting of adjustment parameters, the analysis was run identically without human intervention for all image fields. DAPI staining of the nuclei was used to determine the location of cells using standard nuclei detection modules. Segmentation artifacts were removed by threshold-based filters for area, roundness and intensity. The outline of the cells was determined analogously from the sum of the normalized, smoothed DAPI and Actin channel, starting from each nucleus. The Alexa-Fluor 488 (GSPT1) signal intensity in each cell was finally measured, in order to obtain a Mean intensity per cell. GSPT1 degradation (DC50) was calculated after normalization to controls and data import in CDD vault Database, using non-linear regression.

[2] = Table 5B, read-out: Activity for GSPT1 degradation, Code (DC50)
[3] = bound stated, read-out: IC50 value
[4] = Table 4, read-out: Activity for GSPT1 degradation, Code (DC50)

Chain of GSPT1 (P15170 whole entry): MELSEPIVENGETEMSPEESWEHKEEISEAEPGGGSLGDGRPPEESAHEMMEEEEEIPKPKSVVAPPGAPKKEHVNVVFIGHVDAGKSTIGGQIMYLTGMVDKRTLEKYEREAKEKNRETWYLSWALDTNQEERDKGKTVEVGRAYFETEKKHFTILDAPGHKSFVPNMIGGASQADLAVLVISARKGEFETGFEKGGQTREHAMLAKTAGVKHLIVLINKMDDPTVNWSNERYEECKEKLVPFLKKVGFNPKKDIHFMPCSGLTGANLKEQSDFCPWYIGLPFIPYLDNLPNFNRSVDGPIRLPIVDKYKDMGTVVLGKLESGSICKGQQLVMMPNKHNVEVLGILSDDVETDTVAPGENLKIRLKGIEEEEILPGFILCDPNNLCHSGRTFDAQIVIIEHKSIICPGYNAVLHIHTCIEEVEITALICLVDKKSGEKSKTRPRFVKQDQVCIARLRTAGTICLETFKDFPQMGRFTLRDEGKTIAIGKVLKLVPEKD
Chain of GSPT1 (Q96SW2 whole entry): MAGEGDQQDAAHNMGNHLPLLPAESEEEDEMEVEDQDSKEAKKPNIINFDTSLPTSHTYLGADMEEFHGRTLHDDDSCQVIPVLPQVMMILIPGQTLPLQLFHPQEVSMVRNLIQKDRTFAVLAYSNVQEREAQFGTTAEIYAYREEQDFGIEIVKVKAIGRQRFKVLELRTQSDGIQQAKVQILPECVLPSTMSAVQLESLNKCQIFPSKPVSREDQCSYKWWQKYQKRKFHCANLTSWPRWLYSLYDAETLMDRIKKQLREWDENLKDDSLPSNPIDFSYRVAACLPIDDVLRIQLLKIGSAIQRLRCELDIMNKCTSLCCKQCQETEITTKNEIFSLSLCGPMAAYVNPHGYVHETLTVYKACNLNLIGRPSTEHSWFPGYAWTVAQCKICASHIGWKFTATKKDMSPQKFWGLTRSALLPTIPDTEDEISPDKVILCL
Chain of GSPT1 (Q16531 whole entry partner): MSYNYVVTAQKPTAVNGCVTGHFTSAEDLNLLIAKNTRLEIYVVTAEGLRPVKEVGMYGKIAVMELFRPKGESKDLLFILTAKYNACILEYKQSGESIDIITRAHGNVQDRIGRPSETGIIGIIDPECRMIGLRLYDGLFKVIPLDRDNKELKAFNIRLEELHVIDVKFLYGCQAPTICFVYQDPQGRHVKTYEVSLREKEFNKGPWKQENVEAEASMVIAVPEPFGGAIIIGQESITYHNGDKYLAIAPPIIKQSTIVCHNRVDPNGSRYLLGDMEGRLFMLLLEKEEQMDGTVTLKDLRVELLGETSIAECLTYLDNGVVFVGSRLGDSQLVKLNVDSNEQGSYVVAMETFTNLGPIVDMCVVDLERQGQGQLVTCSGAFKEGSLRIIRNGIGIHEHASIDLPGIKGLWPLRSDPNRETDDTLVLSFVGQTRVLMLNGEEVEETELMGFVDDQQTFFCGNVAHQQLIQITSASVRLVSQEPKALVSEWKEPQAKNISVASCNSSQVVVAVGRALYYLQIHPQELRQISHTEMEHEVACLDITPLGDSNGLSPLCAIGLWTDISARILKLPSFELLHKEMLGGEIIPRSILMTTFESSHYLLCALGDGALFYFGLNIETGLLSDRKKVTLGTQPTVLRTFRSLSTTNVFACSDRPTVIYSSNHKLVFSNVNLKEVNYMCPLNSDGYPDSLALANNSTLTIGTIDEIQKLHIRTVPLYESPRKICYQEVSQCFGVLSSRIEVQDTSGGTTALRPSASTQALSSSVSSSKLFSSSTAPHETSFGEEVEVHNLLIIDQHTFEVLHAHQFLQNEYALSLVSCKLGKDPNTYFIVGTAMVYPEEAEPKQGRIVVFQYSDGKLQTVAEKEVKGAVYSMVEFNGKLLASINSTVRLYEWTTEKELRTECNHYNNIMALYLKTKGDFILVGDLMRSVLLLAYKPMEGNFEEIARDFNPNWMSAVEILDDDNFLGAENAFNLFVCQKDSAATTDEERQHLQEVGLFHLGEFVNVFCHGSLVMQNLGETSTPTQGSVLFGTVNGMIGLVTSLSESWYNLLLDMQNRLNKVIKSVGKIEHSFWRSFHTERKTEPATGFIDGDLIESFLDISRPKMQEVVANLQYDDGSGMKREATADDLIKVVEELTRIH
T1 sequence (Q96SW2 whole entry): as the sequence (Q96SW2 whole entry) above

SMILES	IC50 ([1]; Table 3B, read-out: rFP IC50)	DC50 (GSPT1; [2])	IC50 [1, 3]	DC50 (GSPT1; [4])
Cc1cc(NC(=O)OCc2cc(F)c3c(c2)C(=O)N(C2CCC(=O)NC2=O)C3)cnc1-c1ccccc1 (stereo not shown) [Compound 520]	600 to 1200 nM	≤ 30 nM		
Cc1cc(Cl)cc(NC(=O)OCc2cc(F)c3c(c2)C(=O)N(C2CCC(=O)NC2=O)C3)c1 (stereo not shown) [Compound 527]	1200 to 1900 nM	30 to 300 nM		
O=C1CCC(N2Cc3c(F)cc(COC(=O)Nc4ccc(-c5ccccc5F)c(F)c4)cc3C2=O)C(=O)N1 (stereo not shown) [Compound 529]	> 1900 nM	≤ 30 nM		
Cc1c(Cl)cc(NC(=O)NCc2ccc3c(c2)C(=O)N(C2CCC(=O)NC2=O)C3)cc1CN1CC2CC1CO2 (stereo not shown) [Compound 139]			< 1100 nM	≤ 100 nM
CC(C)(C)c1ccc(NC(=O)OCc2cc(F)c3c(c2)C(=O)N(C2CCC(=O)NC2=O)C3)cc1 (stereo not shown) [Compound 510]	> 1900 nM	30 to 300 nM		
CC(C)(C)c1ccc(NC(=O)OCc2cc(F)c3c(c2)C(=O)N(C2CCC(=O)NC2=O)C3)cn1 (stereo not shown) [Compound 509]	1200 to 1900 nM	≤ 30 nM		
C[C@@H]1CCCN1c1ccc(NC(=O)OCc2cc(F)c3c(c2)C(=O)N(C2CCC(=O)NC2=O)C3)cn1 (stereo partly shown) [Compound 523]	600 to 1200 nM	≤ 30 nM		
CC1(C)COc2cc(NC(=O)OCc3cc(F)c4c(c3)C(=O)N(C3CCC(=O)NC3=O)C4)ccc21 (stereo not shown) [Compound 517]	≤ 600 nM	≤ 30 nM		
O=C1CCC(N2Cc3c(F)cc(COC(=O)Nc4ccc(F)c(OC(F)(F)F)c4)cc3C2=O)C(=O)N1 (stereo not shown) [Compound 514]	> 1900 nM	30 to 300 nM		
CN(C)CC(=O)Oc1cccc(CNC(=O)NCc2ccc3c(c2)C(=O)N(C2CCC(=O)NC2=O)C3)c1 (stereo not shown) [Compound 136]			< 1100 nM	> 300 nM
O=C1CCC(N2Cc3c(F)cc(COC(=O)Nc4ccc(C5CCC5)cc4)cc3C2=O)C(=O)N1 (stereo not shown) [Compound 522]	> 1900 nM	≤ 30 nM		

Now from value to compound:

IC50 ([1]; Table 3B, read-out: rFP IC50)	DC50 (GSPT1; [2])	IC50 [1, 3]	DC50 (GSPT1; [4])	SMILES
≤ 600 nM	30 to 300 nM			COc1cc(COC(=O)Nc2ccc(N3CCC[C@@H]3C)nc2)cc2c1CN(C1CCC(=O)NC1=O)C2=O (stereo partly shown) [Compound 562]
> 1900 nM	30 to 300 nM			O=C1CCC(N2Cc3c(F)cc(COC(=O)Nc4cc(F)cc(Cl)c4)cc3C2=O)C(=O)N1 (stereo not shown) [Compound 533]
	> 300 nM			COc1cc(COC(=O)Nc2cc(OC(F)(F)F)ccc2F)cc2c1CN(C1CCC(=O)NC1=O)C2=O (stereo not shown) [Compound 566]
	≤ 30 nM			COc1cc(COC(=O)Nc2cc(C)cc(F)c2)cc2c1CN(C1CCC(=O)NC1=O)C2=O (stereo not shown) [Compound 567]
1200 to 1900 nM	≤ 30 nM			COc1cc(COC(=O)Nc2ccc(F)c(OC(F)(F)F)c2)cc2c1CN(C1CCC(=O)NC1=O)C2=O (stereo not shown) [Compound 539]
> 1900 nM	> 300 nM			COc1c(COC(=O)Nc2ccc(C)c(Cl)c2)ccc2c1C(=O)N(C1CCC(=O)NC1=O)C2 (stereo not shown) [Compound 570]
≤ 600 nM	≤ 30 nM			COc1cc(COC(=O)Nc2ccc(C3CCC3)cc2)cc2c1CN(C1CCC(=O)NC1=O)C2=O (stereo not shown) [Compound 557]
≤ 600 nM	> 300 nM			Cc1ccc(NC(=O)OCc2ccc3c(c2C)C(=O)N(C2CCC(=O)NC2=O)C3)cc1Cl (stereo not shown) [Compound 573]
600 to 1200 nM	≤ 30 nM			COc1cc(COC(=O)Nc2cc(F)cc(OC(F)F)c2)cc2c1CN(C1CCC(=O)NC1=O)C2=O (stereo not shown) [Compound 547]
> 1900 nM	30 to 300 nM			O=C1CCC(N2Cc3c(F)cc(COC(=O)Nc4ccc(F)c(Cl)c4)cc3C2=O)C(=O)N1 (stereo not shown) [Compound 532]
> 1900 nM	30 to 300 nM			O=C1CCC(N2Cc3c(F)cc(COC(=O)Nc4cc(F)c(-c5ccccc5)c(F)c4)cc3C2=O)C(=O)N1 (stereo not shown) [Compound 530]
> 1900 nM	> 300 nM			Cc1ccc(NC(=O)OCc2ccc3c(c2Cl)C(=O)N(C2CCC(=O)NC2=O)C3)cc1Cl (stereo not shown) [Compound 572]
> 1900 nM	≤ 30 nM			O=C1CCC(N2Cc3c(F)cc(COC(=O)Nc4cc(F)c(F)c(Cl)c4)cc3C2=O)C(=O)N1 (stereo not shown) [Compound 561]
